These results are taken from US20240101566A1, “TRICYCLIC UBIQUITIN SPECIFIC PROTEASE 1 INHIBITOR AND USE THEREOF” (SHANDONG XUANZHU PHARMA CO., LTD., priority 2021, published 2024).

Each structure is given as a SMILES string.

Details of data set [1]: species or system mice. Conditions: mouse, in vivo, iv, 5 mg/kg. The protocol:
Experiment Example 4 Pharmacokinetic Experiment of Compounds of the Present Disclosure 1. Test compounds: the compounds in the examples of the present disclosure, prepared according to the examples in the specification of the present disclosure. [table] (1) Intravenous administration (iv): 2.54 mg of compound 11 was taken, added with 0.495 ml of DMSO solution to be dissolved by vortex and ultrasound, added with 0.495 ml of PEG400 to be mixed by vortex, and then added with 1.484 ml of 28% HP-β-CD to be mixed by vortex to obtain a clear solution, with a concentration of 1 mg/ml. (2) Oral administration (po): 3.33 mg of compound 11 was taken, added with 3.243 ml of solvent (2% HPC+0.1% Tween 80), and ground evenly to obtain a uniform suspension, with a concentration of 1 mg/ml. The test compounds were administered intravenously (iv), with an administration dosage of 5 mg/kg and an administration volume of 5 ml/kg. The test compounds were administered orally (po), with an administration dosage of 10 mg/kg and an administration volume of 10 ml/kg. […] LC-MS/MS was to be analyzed.

For data set [2], the target named is Recombinant Human His6-USP1/His6-UAF1 Complex Protein (Homo sapiens (Human), UniProt O94782). Briefly: In-vitro enzymatic activity on USP1, first experimental method (Ub-Rho substrate, 15 min incubation). Conditions: incubation at room temperature 15 minutes, read-out: Inhibitory activities on USP-1, IC50. It counts as biochemical. The protocol: Experimental Example 1 In-vitro Enzymatic Activities of Compounds of the Present Disclosure
First Experimental Method:
1) The compounds of the present disclosure were prepared to 10 mM with DMSO, and used as test stock solutions.
2) The stock solutions of the compounds of the present disclosure were diluted in a 4-fold gradient for 10 concentrations, with a maximum concentration of 10 mM.
3) The diluted compounds of the present disclosure were respectively transferred to 384-well plates (diluted by 1,000 folds) by Echo550, 2 multiple wells were set for each concentration, and a final concentration of DMSO was […].
1) An enzyme solution was prepared in 1×test buffer.
2) Ubiquitin Rhodamine 110 protein, CF (UB-Rho), was added into 1×determination buffer to prepare a substrate solution.
3) 10 μL of enzyme solution and 1×reaction buffer were transferred to a 384-well plate, and
4) incubated at room temperature for 15 minutes.
5) 10 μL of substrate solution was added into each well to start the reaction, centrifuged for 30 seconds, and shaken for 30 seconds.
1) Plate reading was carried out on SpectraMax Paradigm for 30 minutes, with an excitation wavelength of 480 nm and an emission wavelength of 540 nm.
2) Data on SpectraMax Paradigm were collected.
An inhibition (% inh) was calculated by the following formula:
[formula] • wherein, Max represented: a luminous signal intensity of a positive control well without adding the compound; • Min represented: a luminous signal intensity of a negative control well without adding the enzyme; and • Signal represented: a luminous signal intensity of the compound of the test sample.
IC50 was Calculated by the Following Formula:
[formula] • wherein, Y represented: % inhibition; and • X represented: the concentration of the compound.

Data set [3] concerns MDA-MB-436 cells. Briefly: First in-vitro cytological inhibitory activity experiment (CelltiterGlo assay). The class given is cell-based, human. Conditions: Experimental Example 2, 4,000 cells/well, 7 days, read-out: In-vitro cytological activities, IC50, MDA-MB-436. The protocol: Experimental Example 2 First Experiment of in-vitro Cytological Inhibitory Activities of Compounds of the Present Disclosure
A cell line used in the following experiment was as follows: MDA-MB-436: human breast cancer cells.
Experimental method (CelltiterGlo assay)
All cells were adherent cells, the medium was DMEM+10% FBS+1% ITS-G+16 μg/ml glutathione, and the cells were tested in a logarithmic growth phase.
Cells in the logarithmic growth phase were collected and counted by a […]. The cell viability was detected by a trypan blue exclusion method, and the cell viability was kept over 90%. The cell concentration was adjusted to be in a proper range, and 90 μL of cell suspension was added into a 96-well plate respectively.
2.1 DMSO stock solutions of the test compounds were prepared, and concentrations of the stock solutions of the test compounds were 10 mM respectively.
The stock solutions of the test compounds were serially diluted from 10 mM with DMSO in a 3-fold gradient for a total of 8 concentrations. Then, 2 µL of DMSO-gradient diluted compounds were respectively added into 198 µL of culture solutions to give the working stock solutions of the test compounds (a compound concentration was 10-fold higher than the final concentration, and a maximum concentration was […]).
10 μL of compound working stock solution was added into each well in the 96-well plate inoculated with cells (10-fold dilution, a final DMSO concentration was 0.1%).
Solvent control: 0.1% DMSO. […]
A CTG reagent was thawed and the 96-well plate was equilibrated to room temperature for 30 minutes, 60 μL of reagent (Celititer Glo assay kit) was added into each well, shaking was carried out for 2 minutes with a shaker (in the absence of light), and the plate was incubated at room temperature for 20 minutes (in the absence of light). Light signal values were read on a multi-functional microplate reader.
1) inhibition (%)=(DMSO solvent control well reading−test compound well reading)/(DMSO solvent control well reading−blank control well reading)×100%; […]
In general terms: ATP-based viability assays read luminescence as a measure of living cells.

Chain of Recombinant Human His6-USP1/His6-UAF1 Complex Protein (O94782 whole entry): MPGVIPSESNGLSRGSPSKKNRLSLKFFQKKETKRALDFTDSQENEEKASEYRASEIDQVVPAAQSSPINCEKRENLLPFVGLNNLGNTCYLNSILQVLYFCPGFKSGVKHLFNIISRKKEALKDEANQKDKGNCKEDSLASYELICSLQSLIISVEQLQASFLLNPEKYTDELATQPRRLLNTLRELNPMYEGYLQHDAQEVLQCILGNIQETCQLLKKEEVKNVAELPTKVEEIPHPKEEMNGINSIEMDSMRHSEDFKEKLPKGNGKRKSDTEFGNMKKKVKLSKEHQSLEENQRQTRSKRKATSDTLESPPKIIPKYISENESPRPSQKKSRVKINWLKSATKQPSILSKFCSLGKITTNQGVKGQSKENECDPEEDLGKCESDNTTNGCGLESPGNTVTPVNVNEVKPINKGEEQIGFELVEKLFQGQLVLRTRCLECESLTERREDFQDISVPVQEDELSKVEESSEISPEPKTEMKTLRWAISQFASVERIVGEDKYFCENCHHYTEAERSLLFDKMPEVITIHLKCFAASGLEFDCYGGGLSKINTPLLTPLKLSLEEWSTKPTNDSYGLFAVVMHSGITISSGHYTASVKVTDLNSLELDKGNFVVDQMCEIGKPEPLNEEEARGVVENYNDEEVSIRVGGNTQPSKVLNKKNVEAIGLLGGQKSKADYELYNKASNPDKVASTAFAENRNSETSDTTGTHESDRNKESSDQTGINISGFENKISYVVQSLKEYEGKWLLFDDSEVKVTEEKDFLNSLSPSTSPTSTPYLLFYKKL
Chain of Recombinant Human His6-USP1/His6-UAF1 Complex Protein (Q8TAF3 whole entry partner): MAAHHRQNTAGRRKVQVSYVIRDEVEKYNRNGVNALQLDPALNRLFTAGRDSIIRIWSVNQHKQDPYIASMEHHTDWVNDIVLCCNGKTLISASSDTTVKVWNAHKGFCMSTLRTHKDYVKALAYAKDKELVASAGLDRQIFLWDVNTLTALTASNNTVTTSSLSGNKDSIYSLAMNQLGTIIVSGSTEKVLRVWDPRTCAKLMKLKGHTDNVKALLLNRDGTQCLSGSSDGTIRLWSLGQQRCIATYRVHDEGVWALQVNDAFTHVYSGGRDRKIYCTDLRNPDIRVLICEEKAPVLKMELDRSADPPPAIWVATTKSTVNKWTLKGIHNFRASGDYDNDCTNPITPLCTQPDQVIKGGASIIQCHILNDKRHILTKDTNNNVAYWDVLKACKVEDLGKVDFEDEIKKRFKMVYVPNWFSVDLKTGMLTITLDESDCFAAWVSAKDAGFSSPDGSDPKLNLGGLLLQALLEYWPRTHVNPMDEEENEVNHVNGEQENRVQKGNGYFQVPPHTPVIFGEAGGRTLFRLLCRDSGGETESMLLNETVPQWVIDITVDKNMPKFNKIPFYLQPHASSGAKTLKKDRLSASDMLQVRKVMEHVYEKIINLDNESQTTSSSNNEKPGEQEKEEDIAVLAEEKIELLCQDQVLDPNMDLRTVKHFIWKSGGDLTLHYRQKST

One may read the IC50 as the concentration needed to halve the response being measured. Turning to `COc1ncnc(C2CC2)c1-c1nc2c3c(nn(Cc4ccc(-c5nc(C(F)(F)F)cn5C)cc4)c3n1)CCCC2` [Compound 11, 4-(4-cyclopropyl-6-methoxypyrimidine-5-yl)-2-(4-(1-methyl-4-(trifluoromethyl)-1H-imidazol-2-yl)benzyl)-6,7,8,9-tetrahydro-2H-1,2,3,5-tetraazabenzo[cd]pyrene], the exposure entry in data set [1] is “more than 6,000 h*ng/ml”. The values for the IC50 in data set [2] and in data set [3] were 22 nM and 101 nM, respectively.
